We go through 1 compound from PubChem BioAssay (NCI).

SMILES strings stand for the structures.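 Results reflect a 48-hour exposure of cells in 96-well plates to compound at five concentrations. Abbreviation: GI50, concentration required for 50% inhibition of growth. TGI: concentration producing complete growth inhibition.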 Bounds are passed on as bounds.

Test systems include NCI-H460 lung; SF-539 CNS; K-562 leukemia; SK-MEL-5 melanoma; NCI-H226 lung; LOX IMVI melanoma; A498 renal; HT29 colon; SNB-19 CNS; NCI-H522 lung.
Holding throughout (assay): NCI-60 cell line screen, 48 h

As to `COc1ccc(-c2nn(-c3ccc(NC(=O)Nc4cc(C(F)(F)F)cc(C(F)(F)F)c4)cc3)cc2-c2ccncc2)cc1Cl`, the GI50 in the test with NCI-H460 lung is 1.91 µM; in the test on SF-539 CNS, 1.87 µM; in the test on K-562 leukemia, 2.77 µM; in the test on SK-MEL-5 melanoma, 1.93 µM; in the test with NCI-H226 lung, 4.1 µM; with LOX IMVI melanoma it was 3.31 µM. In addition, the GI50 was 1.31 µM in the test with A498 renal, 2.75 µM in the test with HT29 colon, 4 µM with SNB-19 CNS and 1.9 µM with NCI-H522 lung. Moreover, the TGI in the test on NCI-H460 lung was 5.95 µM; with SF-539 CNS it was 5.37 µM; with K-562 leukemia it was above 100 µM; in the test with SK-MEL-5 melanoma, 4.34 µM; in the test with NCI-H226 lung, 34.2 µM; with LOX IMVI melanoma, above 100 µM. The TGI with A498 renal is 5.32 µM; in the test with HT29 colon, above 100 µM; in the test with SNB-19 CNS, 27.3 µM; with NCI-H522 lung, 7.01 µM.
